# Paper PMC10067601, “Identification of a peptide ligand for human ALDH3A1 through peptide phage display: Prediction and characterization of protein interaction sites and inhibition of ALDH3A1 enzymatic activity” (Frontiers in Molecular Biosciences, 2023)
# Entries after “also recorded” stand apart in the source; their conditions may differ.
# Test system: human recombinant ALDH3A1 (6-His)
# Experiment: Phage display panning, Ph.D.-12 random 12-mer library (3 rounds, clones sequenced)
# Type: binding
# Settings: for Frequency of appearance: clones out of 33 sequenced after third panning round, 75 μg ALDH3A1 coated, Ph.D.-12 library
# Experimental: For phage titration, 50 μL of an overnight E. coli ER2738 (host strain) culture were used for the inoculation of 5 mL Luria Broth (LB) which was subsequently cultivated at 37°C (220 rpm). When E. coli ER2738 culture reached an OD600 value of approximately 0.5, 200 μL of the culture were mixed with 10 μL of the phage solution and the mixture was vortexed and incubated for 5 min at room temperature (RT). Subsequently, it was diluted in 3 mL of warm agarose top (0.7% agarose, 0.5% yeast extract, 1% Bacto-Tryptone, 0.5% NaCl, 0.1% MgCl2•H2O) and poured in LB/IPTG/Xgal agar plates (LB agar plates with 0.004% X-gal 0.005% IPTG). Plates were incubated overnight at 37°C.
# The procedure was initiated with the amplification of the phage plaques as described in 2.5 with the exception that after the first centrifugation, 500 μL of the supernatant was transferred into a fresh tube. Then, 200 μL PEG/NaCl were added and the sample was mixed and incubated at RT for 10 min. The sample was subsequently centrifuged at 14,000 rpm, for 10 min at 4°C and the supernatant was removed. After the second round of centrifugation under the same conditions, the remaining supernatant was carefully discarded. Pellet was then re-suspended in 100 μL of iodine buffer (4M NaI, 1 mM EDTA, 10 mM Tris-HCl, pH 8.0) and 250 μL of ethanol were subsequently added. The mixture was incubated at RT for 10 min, centrifuged at 14,000 rpm for 10 min at RT, and the supernatant was discarded. Finally, 70% of pure ethanol was used for DNA wash and the pellet was suspended in 30 μL sterilized ddH2O. Samples were stored at −20°C until needed. Isolated M13 phage ssDNA (∼120 ng) was subjected to agarose gel electrophoresis, and the residual volume of the ssDNA was sent for single extension sequencing from the primer 5′-CCCTCATAGTTAGCGTAACG-3’. Sequencing was conducted by VBC biotech (Vienna, Austria). The resulting sequences were used for the estimation of the respective 12-mer peptides. […]
sequence,measurement,setting,value
"WPTYVSPFRSPP [P1, …, prevailing 12-mer phage display peptide, synthesised by Genecust]",Frequency of appearance,,30 out of 33
same,Frequency of appearance,listed as WPTYVSPFRSPP,30 out of the 33
same,Strength of interaction with recombinant hALDH3A1,inferred from frequency of appearance,strongest and most specific interaction with the recombinant hALDH3A1; also recorded: appeared to bind most efficiently to hALDH3A1
